Holding throughout (format): binding
Test [1] deals with T1, HeLa cell extract proteins (Homo sapiens, UniProt P07737).
T1 construct: endogenous in cells; host or cells: HeLa cell extract

The target of test [2] is T2, HeLa cell extract proteins (Homo sapiens, UniProt O95197).
T2 construct: endogenous in cells; host or cells: HeLa cell extract
T2 sequence (O95197 1-1032): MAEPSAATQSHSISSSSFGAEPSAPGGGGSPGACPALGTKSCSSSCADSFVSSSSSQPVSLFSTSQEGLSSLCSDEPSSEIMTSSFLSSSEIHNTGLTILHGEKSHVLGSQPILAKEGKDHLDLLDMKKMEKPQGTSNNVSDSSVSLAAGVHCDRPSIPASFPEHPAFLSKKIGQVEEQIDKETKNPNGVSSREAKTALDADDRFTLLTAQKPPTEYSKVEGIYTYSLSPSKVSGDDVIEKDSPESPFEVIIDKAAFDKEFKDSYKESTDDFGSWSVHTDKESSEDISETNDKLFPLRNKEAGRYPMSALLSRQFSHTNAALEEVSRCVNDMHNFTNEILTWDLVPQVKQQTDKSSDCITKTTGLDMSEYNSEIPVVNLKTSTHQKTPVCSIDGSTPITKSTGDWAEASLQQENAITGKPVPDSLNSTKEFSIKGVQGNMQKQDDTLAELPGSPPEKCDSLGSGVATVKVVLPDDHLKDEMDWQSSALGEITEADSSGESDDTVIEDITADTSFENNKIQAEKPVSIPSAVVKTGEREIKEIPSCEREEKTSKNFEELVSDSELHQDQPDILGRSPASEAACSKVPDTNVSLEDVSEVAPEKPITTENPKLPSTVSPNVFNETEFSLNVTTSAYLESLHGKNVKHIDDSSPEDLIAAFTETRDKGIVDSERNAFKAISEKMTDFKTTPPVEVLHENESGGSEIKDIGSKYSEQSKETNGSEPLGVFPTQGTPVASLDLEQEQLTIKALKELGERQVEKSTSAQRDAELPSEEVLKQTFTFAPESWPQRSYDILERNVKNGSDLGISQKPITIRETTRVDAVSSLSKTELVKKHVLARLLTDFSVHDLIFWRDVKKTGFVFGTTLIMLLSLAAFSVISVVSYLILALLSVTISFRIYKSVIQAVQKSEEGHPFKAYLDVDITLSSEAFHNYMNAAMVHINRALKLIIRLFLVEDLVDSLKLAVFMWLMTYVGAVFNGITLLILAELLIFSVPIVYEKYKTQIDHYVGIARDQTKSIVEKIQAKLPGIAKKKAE

The target in test [3] is T3, HeLa cell extract proteins (Homo sapiens, UniProt Q9UBM7).
T3 construct: endogenous in cells; host or cells: HeLa cell extract
T3 sequence (Q9UBM7 1-475): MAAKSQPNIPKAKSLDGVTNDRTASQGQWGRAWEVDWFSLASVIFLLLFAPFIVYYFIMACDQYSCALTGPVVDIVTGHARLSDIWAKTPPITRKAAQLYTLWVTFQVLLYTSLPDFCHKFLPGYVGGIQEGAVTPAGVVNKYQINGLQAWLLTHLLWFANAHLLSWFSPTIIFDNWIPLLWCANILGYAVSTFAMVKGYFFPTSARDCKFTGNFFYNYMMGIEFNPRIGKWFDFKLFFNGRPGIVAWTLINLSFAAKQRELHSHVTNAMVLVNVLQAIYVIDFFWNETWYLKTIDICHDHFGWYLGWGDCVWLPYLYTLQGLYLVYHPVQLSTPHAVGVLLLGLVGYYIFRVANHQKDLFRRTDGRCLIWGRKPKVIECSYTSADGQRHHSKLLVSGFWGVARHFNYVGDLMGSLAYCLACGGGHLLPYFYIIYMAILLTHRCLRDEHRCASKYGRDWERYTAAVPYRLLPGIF

In test [4] the target is T4, HeLa cell extract proteins (Homo sapiens, UniProt O15269).
T4 construct: endogenous in cells; host or cells: HeLa cell extract
T4 sequence (O15269 1-473): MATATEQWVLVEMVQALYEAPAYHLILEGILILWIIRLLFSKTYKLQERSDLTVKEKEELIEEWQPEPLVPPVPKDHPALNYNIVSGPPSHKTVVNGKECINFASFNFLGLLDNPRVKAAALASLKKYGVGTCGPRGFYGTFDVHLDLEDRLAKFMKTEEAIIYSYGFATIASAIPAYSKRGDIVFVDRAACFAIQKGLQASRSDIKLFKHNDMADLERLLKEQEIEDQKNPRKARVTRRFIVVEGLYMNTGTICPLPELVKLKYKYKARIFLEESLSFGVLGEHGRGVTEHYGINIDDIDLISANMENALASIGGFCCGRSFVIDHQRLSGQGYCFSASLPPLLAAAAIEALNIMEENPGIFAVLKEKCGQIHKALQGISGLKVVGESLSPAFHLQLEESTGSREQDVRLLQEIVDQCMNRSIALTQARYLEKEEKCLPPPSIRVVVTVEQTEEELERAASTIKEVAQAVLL

Test [5] deals with T5, HeLa cell extract proteins (Homo sapiens, UniProt Q13907).
T5 construct: endogenous in cells; host or cells: HeLa cell extract
T5 sequence (Q13907 whole entry): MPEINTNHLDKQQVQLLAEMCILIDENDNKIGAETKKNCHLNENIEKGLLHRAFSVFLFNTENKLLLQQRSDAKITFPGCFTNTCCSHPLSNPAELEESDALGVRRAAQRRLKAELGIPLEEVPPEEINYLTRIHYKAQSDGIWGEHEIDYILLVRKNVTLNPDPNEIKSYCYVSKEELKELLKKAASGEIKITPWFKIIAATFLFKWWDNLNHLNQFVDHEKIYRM

The target in test [6] is T6, HeLa cell extract proteins (Homo sapiens, UniProt O75964).
T6 construct: endogenous in cells; host or cells: HeLa cell extract
T6 sequence (O75964 1-103): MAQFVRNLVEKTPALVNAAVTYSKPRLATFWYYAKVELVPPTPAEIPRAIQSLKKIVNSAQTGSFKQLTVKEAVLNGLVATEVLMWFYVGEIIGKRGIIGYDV

The target in test [7] is T7, HeLa cell extract proteins (Homo sapiens, UniProt Q9NSI6).
T7 construct: endogenous in cells; host or cells: HeLa cell extract
T7 sequence (Q9NSI6 whole entry): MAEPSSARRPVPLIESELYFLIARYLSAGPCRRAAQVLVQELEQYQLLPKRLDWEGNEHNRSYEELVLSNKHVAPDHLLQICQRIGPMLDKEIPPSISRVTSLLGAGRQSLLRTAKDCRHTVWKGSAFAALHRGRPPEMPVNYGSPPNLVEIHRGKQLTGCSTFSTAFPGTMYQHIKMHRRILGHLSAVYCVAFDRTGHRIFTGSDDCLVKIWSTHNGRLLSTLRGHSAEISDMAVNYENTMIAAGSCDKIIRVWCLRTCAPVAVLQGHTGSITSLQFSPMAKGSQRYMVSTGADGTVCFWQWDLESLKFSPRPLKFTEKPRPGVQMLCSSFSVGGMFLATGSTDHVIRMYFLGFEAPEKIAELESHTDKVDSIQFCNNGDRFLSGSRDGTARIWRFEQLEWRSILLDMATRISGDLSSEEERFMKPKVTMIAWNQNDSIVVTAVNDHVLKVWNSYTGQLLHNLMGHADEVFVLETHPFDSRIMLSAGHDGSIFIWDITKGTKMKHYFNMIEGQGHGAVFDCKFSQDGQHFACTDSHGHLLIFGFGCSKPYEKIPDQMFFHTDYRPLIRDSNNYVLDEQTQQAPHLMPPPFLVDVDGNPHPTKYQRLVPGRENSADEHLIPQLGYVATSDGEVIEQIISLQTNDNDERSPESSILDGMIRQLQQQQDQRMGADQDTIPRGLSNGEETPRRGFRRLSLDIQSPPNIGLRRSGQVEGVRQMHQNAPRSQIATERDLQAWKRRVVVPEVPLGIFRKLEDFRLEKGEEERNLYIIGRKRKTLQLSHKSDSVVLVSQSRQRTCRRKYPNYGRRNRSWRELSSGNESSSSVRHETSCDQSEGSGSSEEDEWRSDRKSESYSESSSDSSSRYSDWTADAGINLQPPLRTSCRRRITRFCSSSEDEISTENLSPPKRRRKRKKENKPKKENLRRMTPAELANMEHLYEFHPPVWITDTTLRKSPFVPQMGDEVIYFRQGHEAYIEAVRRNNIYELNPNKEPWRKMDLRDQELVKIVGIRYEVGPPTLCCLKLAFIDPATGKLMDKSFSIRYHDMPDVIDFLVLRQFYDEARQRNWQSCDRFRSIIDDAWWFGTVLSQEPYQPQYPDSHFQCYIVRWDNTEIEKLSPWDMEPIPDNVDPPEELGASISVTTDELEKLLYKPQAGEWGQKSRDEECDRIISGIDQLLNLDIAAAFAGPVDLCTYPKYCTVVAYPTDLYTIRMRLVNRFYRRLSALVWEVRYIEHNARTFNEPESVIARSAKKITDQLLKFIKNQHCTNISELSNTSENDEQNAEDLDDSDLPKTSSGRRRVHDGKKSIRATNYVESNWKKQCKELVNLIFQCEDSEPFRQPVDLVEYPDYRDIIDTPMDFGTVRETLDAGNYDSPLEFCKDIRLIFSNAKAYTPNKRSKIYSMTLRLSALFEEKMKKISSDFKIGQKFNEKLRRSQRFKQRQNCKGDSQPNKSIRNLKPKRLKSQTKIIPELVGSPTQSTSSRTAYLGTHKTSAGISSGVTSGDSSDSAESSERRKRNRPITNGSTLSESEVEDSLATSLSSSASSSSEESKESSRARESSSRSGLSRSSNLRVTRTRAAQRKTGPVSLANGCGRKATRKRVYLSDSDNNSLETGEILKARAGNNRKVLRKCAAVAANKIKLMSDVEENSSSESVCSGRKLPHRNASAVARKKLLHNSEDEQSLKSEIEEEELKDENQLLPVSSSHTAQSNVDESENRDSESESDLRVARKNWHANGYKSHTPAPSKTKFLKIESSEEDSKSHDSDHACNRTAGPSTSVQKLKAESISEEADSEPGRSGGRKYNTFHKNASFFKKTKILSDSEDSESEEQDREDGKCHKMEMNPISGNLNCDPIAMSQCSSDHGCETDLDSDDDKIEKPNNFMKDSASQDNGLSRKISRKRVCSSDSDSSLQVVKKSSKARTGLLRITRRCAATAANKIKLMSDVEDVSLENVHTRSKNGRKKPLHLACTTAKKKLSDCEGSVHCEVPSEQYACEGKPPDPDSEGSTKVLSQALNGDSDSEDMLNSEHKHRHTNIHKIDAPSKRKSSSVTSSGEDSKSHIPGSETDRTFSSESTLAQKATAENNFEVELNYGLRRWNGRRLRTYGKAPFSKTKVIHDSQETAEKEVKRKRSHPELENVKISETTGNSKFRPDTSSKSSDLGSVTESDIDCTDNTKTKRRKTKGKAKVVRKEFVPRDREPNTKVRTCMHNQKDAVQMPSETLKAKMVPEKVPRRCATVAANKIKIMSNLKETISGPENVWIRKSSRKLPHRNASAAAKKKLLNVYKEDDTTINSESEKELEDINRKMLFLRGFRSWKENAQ

For test [8], the target named is T8, HeLa cell extract proteins (Homo sapiens, UniProt P27707).
T8 construct: endogenous in cells; host or cells: HeLa cell extract
T8 sequence (P27707 whole entry): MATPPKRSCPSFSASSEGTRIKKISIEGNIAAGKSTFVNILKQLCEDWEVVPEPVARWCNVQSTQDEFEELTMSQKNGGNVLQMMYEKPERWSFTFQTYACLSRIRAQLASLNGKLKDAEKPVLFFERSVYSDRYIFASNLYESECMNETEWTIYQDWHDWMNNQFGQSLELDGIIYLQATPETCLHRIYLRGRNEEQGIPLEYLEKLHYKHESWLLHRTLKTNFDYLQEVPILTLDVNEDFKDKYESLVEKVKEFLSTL

Setting [9] is: HeLa, protein PFN1 (PROFILIN-1.).
Setting [10] is: HeLa, protein IDI1 (ISOPENTENYL-DIPHOSPHATE DELTA ISOMERASE.).

Where two headings read alike, the source gives them in different places.

T1 sequence (P07737 whole entry): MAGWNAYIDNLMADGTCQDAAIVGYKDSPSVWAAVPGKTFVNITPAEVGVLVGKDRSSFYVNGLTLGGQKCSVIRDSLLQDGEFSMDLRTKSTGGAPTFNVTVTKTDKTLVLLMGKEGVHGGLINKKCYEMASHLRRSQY

Turning to `CCCCCCOc1cccc(Cc2cnc(N)nc2N)c1` [compound 2], the “fold changes relative to vehicle control” value in test [1] (setting [9]) worked out at 2.32 fold; in test [2] (protein RTN3, HeLa), 1.14; in test [3] (captured protein DHCR7, HeLa), 1.03; in test [4] (captured protein SPTLC1, HeLa), 1.03; in test [5] (setting [10]), 2.18 fold; in test [6] (protein ATP5L, HeLa), 0.95. Besides, the “fold changes relative to vehicle control” value in test [7] (captured protein BRWD1, HeLa) came out at 1.03; in test [8] (protein DCK, HeLa) it was 0.9.
On to `NCCOCCOCC(=O)Nc1nc2ncc(CNc3ccc(C(=O)NC(CCC(=O)O)C(=O)O)cc3)nc2c(=O)[nH]1` (centres unmarked) [compound 6], for which the “fold changes relative to vehicle control” value in test [1] (HeLa, protein PFN1) came to 1.47; in test [2] (protein RTN3, HeLa), 0.94; in test [3] (HeLa, captured protein DHCR7), 0.96; in test [4] (HeLa, protein SPTLC1) it was 0.95; in test [5] (HeLa, protein IDI1) it was 1.2; in test [6] (HeLa, protein ATP5L), 0.98. Further, the “fold changes relative to vehicle control” value in test [7] (HeLa, protein BRWD1) came to 1.05; in test [8] (HeLa, protein DCK (DEOXYCYTIDINE KINASE)), 0.93.
`CCCCCCOc1ccc(Cc2cnc(N)nc2N)cc1` [compound 1]: the “fold changes relative to vehicle control” value in test [1] (setting [9]) is given as 1.64 fold; in test [2] (protein RTN3, HeLa), 1; in test [3] (captured protein DHCR7, HeLa), 0.95; in test [4] (captured protein SPTLC1, HeLa) it was 0.8; in test [5] (setting [10]), 1.5 fold; in test [6] (protein ATP5L, HeLa), 1.2. In addition, the “fold changes relative to vehicle control” value in test [7] (captured protein BRWD1, HeLa) turned out to be 1.01; in test [8] (protein DCK, HeLa), 0.98.
As for `Nc1nc2c(c(=O)[nH]1)N(C=O)C(CNc1ccc(C(=O)N[C@@H](CCC(=O)O)C(=O)O)cc1)CN2` (some centres unmarked) [LEU, leucovorin], the “fold changes relative to vehicle control” value in test [1] (HeLa, protein PFN1) amounted to 1.22; in test [2] (protein RTN3, HeLa), 0.97; in test [3] (HeLa, captured protein DHCR7) it was 0.99; in test [4] (HeLa, protein SPTLC1), 0.9; in test [5] (HeLa, protein IDI1) it was 1.09; in test [6] (HeLa, protein ATP5L), 1.07. Further, the “fold changes relative to vehicle control” value in test [7] (HeLa, protein BRWD1) was 0.93; in test [8] (HeLa, protein DCK (DEO[…])) it was 1.12.
In the case of `NCCCNc1ccc(C(=O)NC(CCC(=O)O)C(=O)O)cc1` (centres unmarked) [compound 7], the “fold changes relative to vehicle control” value in test [1] (HeLa, protein PFN1) amounted to 1.21; in test [2] (protein RTN3, HeLa) it was 0.84; in test [3] (HeLa, captured protein DHCR7), 0.98; in test [4] (HeLa, protein SPTLC1), 1.03; in test [5] (HeLa, protein IDI1), 1.01; in test [6] (HeLa, protein ATP5L) it was 0.97. The “fold changes relative to vehicle control” value in test [7] (HeLa, protein BRWD1) was found to be 0.92; in test [8] (HeLa, protein DCK (DEO[…])), 1.04.
As to `Nc1nc2[nH]cc(CCc3ccc(C(=O)N[C@@H](CCC(=O)O)C(=O)O)cc3)c2c(=O)[nH]1` [PTX, pemetrexed], the “fold changes relative to vehicle control” value in test [1] turned out to be 1.43; in test [2], 0.85; in test [3], 0.98; in test [4], 0.95; in test [5], 1.03; in test [6] it was 1.32. In addition, the figures for the “fold changes relative to vehicle control” value in test [7] and in test [8] were 1.07 and 1, respectively.
In the case of `Nc1nc2cccc(-c3ccccc3)c2n1Cc1ccc(Cl)c(Cl)c1` [compound 3], the “fold changes relative to vehicle control” value in test [1] (setting [9]) came out at 1.03 fold; in test [2] (protein RTN3, HeLa) it was 0.9; in test [3] (captured protein DHCR7, HeLa) it was 1.02; in test [4] (captured protein SPTLC1, HeLa) it was 1.09; in test [5] (HeLa, protein IDI1 (ISOPENTENYL-D[…] ISOMERASE.)), 0.88 fold; in test [6] (protein ATP5L, HeLa), 0.98. Besides, the “fold changes relative to vehicle control” value came out at 0.9 in test [7] (captured protein BRWD1, HeLa) and 1.01 in test [8] (protein DCK, HeLa).

The record behind these values is paper PMC6199744, “Development of Chemical Proteomics for the Folateome and Analysis of the Kinetoplastid Folateome” (ACS Infectious Diseases, 2018).
